The results in this text go back to BindingDB's records for doi:10.1021/acsmedchemlett.1c00437 (University of Pennsylvania, 2021).

Assay [1] can be described thus: Inhibition of gp120 in HIV-1 pseudotyped with A-MLV envelop glycoprotein infected in dog Cf2Th-CD4/CCR5 cells assessed as inhibition of viral entry incubated for 30 mins prior to infection and further incubated for 48 to 72 hrs in presence of firefly D-luciferin free acid and ATP by single-round infection luciferase assay.
Assay [2] is described as follows: Inhibition of gp120 in HIV-1 AD8 infected in dog Cf2Th-CD4/CCR5 cells assessed as inhibition of viral entry incubated for 30 mins prior to infection and further incubated for 48 to 72 hrs in presence of firefly D-luciferin free acid and ATP by single-round infection luciferase assay.
A short description of assay [3]: Inhibition of gp120 in HIV-1 191084 infected in dog Cf2Th-CD4/CCR5 cells assessed as inhibition of viral entry incubated for 30 mins prior to infection and further incubated for 48 to 72 hrs in presence of firefly D-luciferin free acid and ATP by single-round infection luciferase assay.
Assay [4] can be described thus: Inhibition of gp120 in HIV-1 A4 infected in dog Cf2Th-CD4/CCR5 cells assessed as inhibition of viral entry incubated for 30 mins prior to infection and further incubated for 48 to 72 hrs in presence of firefly D-luciferin free acid and ATP by single-round infection luciferase assay.

What is called IC50 is the point on the concentration scale where inhibition reaches its midpoint. As for `C=CCC[C@@H]1c2cc(CNC)ccc2[C@H](NC(=O)C(=O)Nc2ccc(Cl)c(F)c2)[C@H]1CNC(=N)N`, the IC50 in assay [1] was greater than 300 µM; in assay [2] it was 7.4 µM.

For `CNCc1ccc2c(c1)[C@@H](CCCO)[C@H](CNC(=N)N)[C@H]2NC(=O)C(=O)Nc1ccc(Cl)c(F)c1`, the IC50 in assay [1] is greater than 300 µM; in assay [2], 7.7 µM.

Consider `CNCc1ccc2c(c1)[C@@H](CCC(O)CO)[C@H](CNC(=N)N)[C@H]2NC(=O)C(=O)Nc1ccc(Cl)c(F)c1` (some centres undefined), for which the IC50 in assay [3] was 20.6 µM; in assay [1], greater than 300 µM; in assay [2] it was 3.32 µM; in assay [4], 98.9 µM.

As to `CNCc1ccc2c(c1)[C@@H](CCC(=O)CO)[C@H](CNC(=N)N)[C@H]2NC(=O)C(=O)Nc1ccc(Cl)c(F)c1`, the IC50 in assay [1] was greater than 100 µM; in assay [2], 3.35 µM.

Turning to `[H]/N=C(/N)NC[C@H]1[C@H](CC[C@H](O)CO)c2cc(CNC)ccc2[C@@H]1NC(=O)C(=O)Nc1ccc(Cl)c(F)c1`, the IC50 in assay [1] is greater than 300 µM; in assay [2] it was 0.91 µM.

For the compound `[H]/N=C(/N)NC[C@H]1[C@H](CC[C@@H](O)CO)c2cc(CNC)ccc2[C@@H]1NC(=O)C(=O)Nc1ccc(Cl)c(F)c1`, the half-maximal inhibitory concentration (IC50) in assay [1] is greater than 300 µM; in assay [2], 1.6 µM.

For the compound `CNCc1ccc2c(c1)[C@H](NC(=O)C(=O)Nc1ccc(Cl)c(F)c1)[C@@H](CNC(=N)N)[C@@H]2CCCO`, the IC50 was greater than 300 µM in assay [1] and 2.05 µM in assay [2].

As for `CNCc1ccc2c(c1)[C@H](NC(=O)C(=O)Nc1ccc(Cl)c(F)c1)[C@@H](CNC(=N)N)[C@@H]2CCC(O)CO` (some centres undefined), the half-inhibitory concentration (IC50) in assay [1] was greater than 300 µM; in assay [2] it was 0.96 µM.

For `CNCc1ccc2c(c1)[C@H](NC(=O)C(=O)Nc1ccc(Cl)c(F)c1)[C@@H](CNC(=N)N)[C@@H]2CC[C@H](O)CO`, the values for the IC50 in assay [1] and in assay [2] were greater than 300 µM and 2.22 µM, respectively.

In the case of `CCCC[C@@H]1c2cc(CNC)ccc2[C@H](NC(=O)C(=O)Nc2ccc(Cl)c(F)c2)[C@H]1CNC(=N)N`, the IC50 in assay [1] was greater than 100 µM.

For `C=CCC[C@@H]1c2ccc(CNC)cc2[C@H](NC(=O)C(=O)Nc2ccc(Cl)c(F)c2)[C@H]1CNC(=N)N`, the IC50 in assay [1] is greater than 300 µM.

As for `[H]/N=C(/N)NC[C@H]1Cc2cc(CNC)ccc2[C@@H]1NC(=O)C(=O)Nc1ccc(Cl)c(F)c1`, the values for the IC50 in assay [3] and in assay [4] were 95.9 µM and 200 µM, respectively.
